Experimental data taken from ChEMBL document CHEMBL1671859, “bla(IMP-4) in different genetic contexts in Enterobacteriaceae isolates from Australia” (2008).
≈ marks a conversion by molar mass, not a printed value.

What was measured:
Type in all cases: functional
Citrobacter amalonaticus [1] = assay: Antibacterial activity against Citrobacter amalonaticus isolate Ca1614 harboring IncL/M plasmid and blaIMP-4-qacG2-aacA4-catB3 array by Etest method
Klebsiella pneumoniae [2] = assay: Antibacterial activity against Klebsiella pneumoniae isolate Kp7564 harboring IncL/M plasmid and blaIMP-4-qacG2-aacA4-catB3 array by Etest method
Klebsiella oxytoca [3] = assay: Antibacterial activity against Klebsiella oxytoca isolate Ko238 harboring IncA/C plasmid and blaIMP-4-qacG2-aacA4-catB3 array by Etest method
Klebsiella pneumoniae [4] = assay: Antibacterial activity against Klebsiella pneumoniae Kp1239 transconjugant harboring IncL/M plasmid and blaIMP-4-qacG2-aacA4-catB3 array by Etest method
Citrobacter youngae [5] = assay: Antibacterial activity against Citrobacter youngae isolate CyB38 harboring blaIMP-4-qacG2-aacA4-catB3 array by Etest method
Enterobacter cloacae [6] = assay: Antibacterial activity against Enterobacter cloacae isolate El1573 harboring IncL/M plasmid and blaIMP-4-qacG2-aacA4-catB3 array by Etest method
Morganella morganii [7] = assay: Antibacterial activity against Morganella morganii isolate Mm1229 harboring IncL/M plasmid and blaIMP-4-qacG2-aacA4-catB3 array by Etest method
Klebsiella oxytoca [8] = assay: Antibacterial activity against Klebsiella oxytoca isolate Ko1156 harboring IncL/M plasmid and blaIMP-4-qacG2-aacA4-catB3 array by Etest method
Klebsiella oxytoca [9] = assay: Antibacterial activity against Klebsiella oxytoca Ko0426 transconjugant harboring IncL/M plasmid and blaIMP-4-qacG2-aacA4-catB3 array by Etest method
Serratia marcescens [10] = assay: Antibacterial activity against Serratia marcescens isolate Sm2723 harboring IncL/M plasmid and blaIMP-4-qacG2-aacA4-catB3 array by Etest method
Enterobacter cloacae [11] = assay: Antibacterial activity against Enterobacter cloacae isolate El3799 harboring IncL/M plasmid and blaIMP-4-qacG2-aacA4-catB3 array by Etest method
Citrobacter amalonaticus [12] = assay: Antibacterial activity against Citrobacter amalonaticus Ca3927 transconjugant harboring IncL/M plasmid and blaIMP-4-qacG2-aacA4-catB3 array by Etest method
Enterobacter cloacae [13] = assay: Antibacterial activity against Enterobacter cloacae isolate El3280 harboring IncL/M plasmid and blaIMP-4-qacG2-aacA4-catB3 array by Etest method
Klebsiella pneumoniae [14] = assay: Antibacterial activity against Klebsiella pneumoniae isolate Kp149 harboring IncA/C plasmid and blaIMP-4-qacG2-aacA4-catB3 array by Etest method
Serratia marcescens [15] = assay: Antibacterial activity against Serratia marcescens Sm265 transconjugant harboring IncA/C plasmid and blaIMP-4-qacG2-aacA4-catB3 array by Etest method
Citrobacter amalonaticus [16] = assay: Antibacterial activity against Citrobacter amalonaticus isolate Ca38009 harboring IncL/M plasmid and blaIMP-4-qacG2-aacA4-catB3 array by Etest method
Escherichia coli [17] = assay: Antibacterial activity against Escherichia coli Ec158 transconjugant harboring IncA/C plasmid and blaIMP-4-qacG2-aacA4-catB3 array by Etest method
Citrobacter koseri = assay: Antibacterial activity against Citrobacter koseri isolate Ck211 harboring IncA/C plasmid and blaIMP-4-qacG2-aacA4-catB3 array by Etest method
Klebsiella pneumoniae [18] = assay: Antibacterial activity against Klebsiella pneumoniae isolate Kp38009 harboring IncL/M plasmid and blaIMP-4-qacG2-aacA4-catB3 array by Etest method
Klebsiella oxytoca [19] = assay: Antibacterial activity against Klebsiella oxytoca Ko238 transconjugant harboring IncA/C plasmid and blaIMP-4-qacG2-aacA4-catB3 array by Etest method
Serratia marcescens [20] = assay: Antibacterial activity against Serratia marcescens isolate Sm211 harboring IncA/C plasmid and blaIMP-4-qacG2-aacA4-catB3 array by Etest method
Klebsiella pneumoniae [21] = assay: Antibacterial activity against Klebsiella pneumoniae Kp7564 transconjugant harboring IncL/M plasmid and blaIMP-4-qacG2-aacA4-catB3 array by Etest method
Escherichia coli [22] = assay: Antibacterial activity against Escherichia coli Ec221 transconjugant harboring IncA/C plasmid and blaIMP-4-qacG2-aacA4-catB3 array by Etest method
Citrobacter amalonaticus [23] = assay: Antibacterial activity against Citrobacter amalonaticus Ca38009 transconjugant harboring IncL/M plasmid and blaIMP-4-qacG2-aacA4-catB3 array by Etest method
Enterobacter cloacae [24] = assay: Antibacterial activity against Enterobacter cloacae isolate El3518 harboring IncL/M plasmid and blaIMP-4-qacG2-aacA4-catB3 array by Etest method
Serratia marcescens [25] = assay: Antibacterial activity against Serratia marcescens isolate Sm203 harboring IncA/C plasmid and blaIMP-4-qacG2-aacA4-catB3 array by Etest method
Escherichia coli [26] = assay: Antibacterial activity against Escherichia coli isolate Ec158 harboring IncA/C plasmid and blaIMP-4-qacG2-aacA4-catB3 array by Etest method
Klebsiella pneumoniae [27] = assay: Antibacterial activity against Klebsiella pneumoniae Kp2730 transconjugant harboring IncL/M plasmid and blaIMP-4-qacG2-aacA4-catB3 and dfrA12-orfF-aadA2 arrays by Etest method
Klebsiella pneumoniae [28] = assay: Antibacterial activity against Klebsiella pneumoniae isolate Kp2730 harboring IncL/M plasmid and blaIMP-4-qacG2-aacA4-catB3 and dfrA12-orfF-aadA2 arrays by Etest method
Klebsiella oxytoca [29] = assay: Antibacterial activity against Klebsiella oxytoca isolate Ko0426 harboring IncL/M plasmid and blaIMP-4-qacG2-aacA4-catB3 array by Etest method
Serratia marcescens [30] = assay: Antibacterial activity against Serratia marcescens isolate Sm201 harboring IncA/C plasmid and blaIMP-4-qacG2-aacA4-catB3 array by Etest method
Klebsiella pneumoniae [31] = assay: Antibacterial activity against Klebsiella pneumoniae isolate Kp3799 harboring IncL/M plasmid and blaIMP-4-qacG2-aacA4-catB3 array by Etest method
Serratia marcescens [32] = assay: Antibacterial activity against Serratia marcescens Sm2723 transconjugant harboring IncL/M plasmid and blaIMP-4-qacG2-aacA4-catB3 array by Etest method
Citrobacter youngae [33] = assay: Antibacterial activity against Citrobacter youngae CyB38 transconjugant harboring blaIMP-4-qacG2-aacA4-catB3 array by Etest method
Klebsiella pneumoniae [34] = assay: Antibacterial activity against Klebsiella pneumoniae isolate Kp266 harboring IncA/C plasmid and blaIMP-4-qacG2-aacA4-catB3 array by Etest method
Escherichia coli [35] = assay: Antibacterial activity against Escherichia coli isolate Ec221 harboring IncA/C plasmid and blaIMP-4-qacG2-aacA4-catB3 array by Etest method
Klebsiella pneumoniae [36] = assay: Antibacterial activity against Klebsiella pneumoniae Kp38045 transconjugant harboring IncL/M plasmid and blaIMP-4-qacG2-aacA4-catB3 array by Etest method
Klebsiella pneumoniae [37] = assay: Antibacterial activity against Klebsiella pneumoniae Kp38009 transconjugant harboring IncL/M plasmid and blaIMP-4-qacG2-aacA4-catB3 array by Etest method
Morganella morganii [38] = assay: Antibacterial activity against Morganella morganii isolate Mm38009 harboring IncL/M plasmid and blaIMP-4-qacG2-aacA4-catB3 array by Etest method
Escherichia coli [39] = assay: Antibacterial activity against Escherichia coli isolate Ec211 harboring IncA/C plasmid and blaIMP-4-qacG2-aacA4-catB3 array by Etest method
Klebsiella pneumoniae [40] = assay: Antibacterial activity against Klebsiella pneumoniae isolate Kp211 harboring IncA/C plasmid and blaIMP-4-qacG2-aacA4-catB3 array by Etest method
Citrobacter freundii = assay: Antibacterial activity against Citrobacter freundii isolate Cf1614 harboring IncL/M plasmid and blaIMP-4-qacG2-aacA4-catB3 array by Etest method

C[C@@H](O)[C@H]1C(=O)N2C(C(=O)O)=C(SCCNC=N)C[C@H]12 [IMIPENEM ANHYDROUS]
MIC (Citrobacter amalonaticus [1]): 4 µg/mL (≈ 13.4 µM)
MIC (Klebsiella pneumoniae [2]): 7 µg/mL (≈ 23.4 µM)
MIC (Klebsiella oxytoca [3]): 8 µg/mL (≈ 26.7 µM)
MIC (Klebsiella pneumoniae [4]): 2 µg/mL (≈ 6.68 µM)
MIC (Citrobacter youngae [5]): 8 µg/mL (≈ 26.7 µM)
MIC (Enterobacter cloacae [6]): 8 µg/mL (≈ 26.7 µM)
MIC (Morganella morganii [7]): 4 µg/mL (≈ 13.4 µM)
MIC (Klebsiella oxytoca [8]): 0.75 µg/mL (≈ 2.51 µM)
MIC (Klebsiella oxytoca [9]): 4 µg/mL (≈ 13.4 µM)
MIC (Serratia marcescens [10]): 1.5 µg/mL (≈ 5.01 µM)
MIC (Enterobacter cloacae [11]): 1 µg/mL (≈ 3.34 µM)
MIC (Citrobacter amalonaticus [12]): ≤ 1 µg/mL
MIC (Enterobacter cloacae [13]): 3 µg/mL (≈ 10 µM)
MIC (Klebsiella pneumoniae [14]): 8 µg/mL (≈ 26.7 µM)
MIC (Serratia marcescens [15]): 2 µg/mL (≈ 6.68 µM)
MIC (Citrobacter amalonaticus [16]): 1.5 µg/mL (≈ 5.01 µM)
MIC (Escherichia coli [17]): 2 µg/mL (≈ 6.68 µM)
MIC (Citrobacter koseri): ≤ 1 µg/mL
MIC (Klebsiella pneumoniae [18]): 0.5 µg/mL (≈ 1.67 µM)
MIC (Klebsiella oxytoca [19]): 2 µg/mL (≈ 6.68 µM)
MIC (Serratia marcescens [20]): 4 µg/mL (≈ 13.4 µM)
MIC (Klebsiella pneumoniae [21]): 2 µg/mL (≈ 6.68 µM)
MIC (Escherichia coli [22]): 4 µg/mL (≈ 13.4 µM)
MIC (Citrobacter amalonaticus [23]): 2 µg/mL (≈ 6.68 µM)
MIC (Enterobacter cloacae [24]): 3 µg/mL (≈ 10 µM)
MIC (Serratia marcescens [25]): 4 µg/mL (≈ 13.4 µM)
MIC (Escherichia coli [26]): ≤ 1 µg/mL
MIC (Klebsiella pneumoniae [27]): 2 µg/mL (≈ 6.68 µM)
MIC (Klebsiella pneumoniae [28]): 8 µg/mL (≈ 26.7 µM)
MIC (Klebsiella oxytoca [29]): 4 µg/mL (≈ 13.4 µM)
MIC (Serratia marcescens [30]): 8 µg/mL (≈ 26.7 µM)
MIC (Klebsiella pneumoniae [31]): 4 µg/mL (≈ 13.4 µM)
MIC (Serratia marcescens [32]): 2 µg/mL (≈ 6.68 µM)
MIC (Citrobacter youngae [33]): 4 µg/mL (≈ 13.4 µM)
MIC (Klebsiella pneumoniae [34]): 8 µg/mL (≈ 26.7 µM)
MIC (Escherichia coli [35]): 8 µg/mL (≈ 26.7 µM)
MIC (Klebsiella pneumoniae [36]): 2 µg/mL (≈ 6.68 µM)
MIC (Klebsiella pneumoniae [37]): ≤ 1 µg/mL
MIC (Morganella morganii [38]): 3 µg/mL (≈ 10 µM)
MIC (Escherichia coli [39]): 4 µg/mL (≈ 13.4 µM)
MIC (Klebsiella pneumoniae [40]): 2 µg/mL (≈ 6.68 µM)
MIC (Citrobacter freundii): 4 µg/mL (≈ 13.4 µM)

GENTAMICIN
MIC (Citrobacter amalonaticus [1]): > 8 µg/mL
MIC (Klebsiella pneumoniae [2]): > 8 µg/mL
MIC (Klebsiella oxytoca [3]): 4 µg/mL
MIC (Klebsiella pneumoniae [4]): > 8 µg/mL
MIC (Citrobacter youngae [5]): > 8 µg/mL
MIC (Enterobacter cloacae [6]): > 8 µg/mL
MIC (Morganella morganii [7]): > 8 µg/mL
MIC (Klebsiella oxytoca [8]): > 8 µg/mL
MIC (Klebsiella oxytoca [9]): > 8 µg/mL
MIC (Serratia marcescens [10]): > 8 µg/mL
MIC (Enterobacter cloacae [11]): > 8 µg/mL
MIC (Citrobacter amalonaticus [12]): > 8 µg/mL
MIC (Enterobacter cloacae [13]): > 8 µg/mL
MIC (Klebsiella pneumoniae [14]): > 8 µg/mL
MIC (Serratia marcescens [15]): < 2 µg/mL
MIC (Citrobacter amalonaticus [16]): > 8 µg/mL
MIC (Escherichia coli [17]): > 8 µg/mL
MIC (Citrobacter koseri): > 8 µg/mL
MIC (Klebsiella pneumoniae [18]): > 8 µg/mL
MIC (Klebsiella oxytoca [19]): < 2 µg/mL
MIC (Serratia marcescens [20]): > 8 µg/mL
MIC (Klebsiella pneumoniae [21]): > 8 µg/mL
MIC (Escherichia coli [22]): < 2 µg/mL
MIC (Citrobacter amalonaticus [23]): > 8 µg/mL
MIC (Enterobacter cloacae [24]): > 8 µg/mL
MIC (Serratia marcescens [25]): > 8 µg/mL
MIC (Escherichia coli [26]): > 8 µg/mL
MIC (Klebsiella pneumoniae [27]): > 8 µg/mL
MIC (Klebsiella pneumoniae [28]): > 8 µg/mL
MIC (Klebsiella oxytoca [29]): > 8 µg/mL
MIC (Serratia marcescens [30]): > 8 µg/mL
MIC (Klebsiella pneumoniae [31]): > 8 µg/mL
MIC (Serratia marcescens [32]): > 8 µg/mL
MIC (Citrobacter youngae [33]): < 2 µg/mL
MIC (Klebsiella pneumoniae [34]): > 8 µg/mL
MIC (Escherichia coli [35]): < 2 µg/mL
MIC (Klebsiella pneumoniae [36]): > 8 µg/mL
MIC (Klebsiella pneumoniae [37]): > 8 µg/mL
MIC (Morganella morganii [38]): > 8 µg/mL
MIC (Escherichia coli [39]): > 8 µg/mL
MIC (Klebsiella pneumoniae [40]): > 8 µg/mL
MIC (Citrobacter freundii): > 8 µg/mL
